What was measured:
[1] = test system: progesterone receptor positive breast cancer; conditions: rat model, recent study; cited from earlier work
[2] = target: T1, progesterone receptor-LBD (Homo sapiens, UniProt P06401); assay: Progesterone Agonist screen (SELECTSCREEN GENEBLAZER beta-lactamase reporter); type: cell-based; conditions: progesterone receptor-LBD-UAS-bla HEK 293T cells; read-out: Progesterone Agonist Activation IC50
T1 construct: host or cells: HEK 293T (progesterone receptor-LBD-UAS-bla)
T1 sequence (P06401 679-913 limits assumed): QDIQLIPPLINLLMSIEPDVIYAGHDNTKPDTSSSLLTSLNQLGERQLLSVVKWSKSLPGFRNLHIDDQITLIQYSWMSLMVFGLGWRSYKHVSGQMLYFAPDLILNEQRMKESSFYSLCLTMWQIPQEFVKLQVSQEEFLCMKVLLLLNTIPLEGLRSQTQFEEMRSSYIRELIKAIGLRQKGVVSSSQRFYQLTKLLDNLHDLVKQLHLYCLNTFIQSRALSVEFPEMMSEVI
Method: (§1) Determination of the agonist/antagonist nature of the test compounds was carried out using Invitrogen's SELECTSCREEN, a cell-based nuclear receptor profiling service which uses GENEBLAZER a beta-lactamase reporter technology. This assay uses a Beta-lactamase cDNA under transcriptional control of an Upstream Activator Sequence (UAS). The UAS is activated by the GAL4 transcription factor DNA binding domain (DBD), which is expressed as a fusion protein with the target receptor ligand binding domain (LBD). Upon ligand binding, the GAL4(DBD)-NR(LDB) binds to the UAS, which controls transcription of Beta-lactamase. Beta-lactamase cleaves a special engineered fluorescent substrate which results in a change in the measured fluorescence wavelength.
The plate is incubated for 16-24 hours at 37° C./5% CO2 in a humidified incubator. […] The plate is then read on a fluorescence plate reader (Tecan Safire).

[3] = target: T2, glucocorticoid receptor-LBD (Homo sapiens, UniProt P04150); assay: Glucocorticoid Antagonist Screen activated by control agonist Dexamethasone (GENEBLAZER beta-lactamase reporter); type: cell-based; conditions: glucocorticoid receptor-LBD-UAS-bla HEK 293T cells, read-out: Glucocorticoid Antagonist Inhibition IC50
T2 construct: host or cells: HEK 293T (glucocorticoid receptor-LBD-UAS-bla)
T2 sequence (P04150 524-758 limits assumed): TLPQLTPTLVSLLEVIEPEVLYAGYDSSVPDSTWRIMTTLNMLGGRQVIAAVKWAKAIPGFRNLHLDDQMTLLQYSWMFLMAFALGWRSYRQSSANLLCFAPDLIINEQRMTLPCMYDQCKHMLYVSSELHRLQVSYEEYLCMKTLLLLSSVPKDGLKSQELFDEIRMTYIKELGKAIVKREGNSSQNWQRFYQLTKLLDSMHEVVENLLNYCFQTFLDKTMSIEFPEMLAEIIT
Method: as §1

[4] = target: T1, progesterone receptor-LBD; assay: Progesterone Antagonist Screen, activated by control agonist R5020 (GENEBLAZER beta-lactamase reporter); type: cell-based; conditions: progesterone receptor-LBD-UAS-bla HEK 293T cells; control agonist R5020 at EC80; read-out: Progesterone Antagonist Inhibition IC50
Method: as §1
The generalized protocol used for the Progesterone Antagonist Screen, activated by control Agonist R5020 is as follows:
32 μL of cell suspension is added to the wells which is then pre-incubated at 37 C/5% CO2 in a humidified incubator with test compounds and control antagonist titration for 30 minutes. 4 μL of a 10× control agonist (see above) at the predetermined EC80 concentration is added to wells containing the control antagonist or test compounds. The plate is incubated for 16-24 hours at 37 C/5% CO2 in a humidified incubator. 8 μl of 1 μM Substrate Loading Solution is added to each well and the plate is incubated for 2 hours at room temperature. The plate is then read on a fluorescence plate reader (Tecan Safire).

IC50 [4] [nM]	Compound	further results
–	COCC(=O)[C@@]1(OC(C)=O)CC[C@H]2[C@@H]3CCC4=CC(=O)CCC4=C3[C@@H](c3ccc(N(C)C)cc3)C[C@@]21C [PROELLEX]	development of new tumors [1]: decrease in the development of new tumors; tumor size [1]: regression of tumor size
0.265	CC(=O)c1ccc(C2CC3(C)C(CCC34OCCC4=C(F)F)C3CCC4=CC(=O)CCC4=C23)cc1 (stereo not drawn) [Compound 1a, 21,21-difluoro-11β-(4′-acetyl)phenyl-17,23-epoxy-19,24-dinor-17α-chola-4,9,20-triene]	IC50 [2]: > 10 nM; IC50 [3]: > 10 nM
0.344	COc1ccc(C2CC3(C)C(CCC34OCCC4=C(F)F)C3CCC4=CC(=O)CCC4=C23)cc1 (stereo not drawn) [Compound 1c, 21,21-difluoro-11β-(4′-methoxyphenyl)-17,23-epoxy-19,24-dinor-17α-chola-4,9,20-triene]	–
0.178	CN(C)c1ccc(C2CC3(C)C(CCC34OCCC4=C(F)F)C3CCC4=CC(=O)CCC4=C23)cc1 (stereo not drawn) [Compound 1b, 21,21-difluoro-11β-[4′-(dimethylamino)phenyl]-17,23-epoxy-19,24-dinor-17α-chola-4,9,20-triene]	–
0.28	CC12CC(c3ccc(-c4cccnc4)cc3)C3=C4CCC(=O)C=C4CCC3C1CCC21OCCC1=C(F)F (stereo not drawn) [Compound 1e, 21,21-difluoro-11β-[4′-(3′-pyridyl)phenyl]-17,23-epoxy-19,24-dinor-17α-chola-4,9,20-triene]	–
0.864	CC12CC(c3ccc(-c4ccoc4)cc3)C3=C4CCC(=O)C=C4CCC3C1CCC21OCCC1=C(F)F (stereo not shown) [Compound 1f]	–
0.413	C=C(C)c1ccc(C2CC3(C)C(CCC34OCCC4=C(F)F)C3CCC4=CC(=O)CCC4=C23)cc1 (stereo not drawn) [Compound 1d, 21,21-difluoro-11β-(4′-isopropenylphenyl)-17,23-epoxy-19,24-dinor-17α-chola-4,9,20-triene]	–
0.798	CC(=O)c1ccc([C@H]2C[C@@]3(C)[C@@H](CC[C@@]3(O)C(F)(F)C(F)(F)F)[C@@H]3CCC4=CC(=O)CCC4=C32)cc1 [ZK 230211, Lonaprisan, reference compound]	IC50 [2]: > 10 nM; IC50 [3]: > 10 nM

— patent US8673968B2, “Progesterone antagonists” (Evestra, Inc., priority 2009, dated 2014)
